Assay: xn = mol fraction of the nth substance listed
Settings: 100 kPa

CC(=O)[O-].CC[n+]1ccn(C)c1 + O
viscosity [mPa·s]
Settings | 293.15 K | 303.15 K | 313.15 K | 323.15 K | 333.15 K | 343.15 K | 353.15 K
x2 = 0 | 203 | 104.8 | 61.1 | 38.9 | 26.56 | 19.01 | 14.24
x2 = 0.2088 | – | 77.9 | – | – | 20.8 | – | –
x2 = 0.4 | 88.6 | – | – | 23.04 | 16.47 | – | 9.27
x2 = 0.6014 | 51.8 | 32.6 | 21.88 | 15.4 | 11.09 | 8.39 | –
x2 = 0.8023 | 20.45 | 13.51 | 9.41 | 6.6 | 4.95 | – | 3.021
